# In paper PMC13099959, “Context-dependent activation and evolutionary buffering of a mating pheromone in fission yeast” (Communications Biology, 2026):
# No end group written: not given here. Far = not defined here
# How the values were obtained:
# [1] = system: S. pombe h90 strains (mating and sporulation); assay: Frequency of zygote formation (microscopy-based mating frequency); format: cell-based, Schizosaccharomyces pombe
# Protocol: Cells were pre-cultured on YEA medium at 30 °C overnight, washed with 1 mL sterilized water (10,000 rpm, 3 min, 4 °C), and adjusted to an OD600 of 5.0. Aliquots (30 µL) were spotted on YEA, MEA, SSA, or fruit/vegetable juice media (grape, orange, apple, vegetable) and incubated at 30 °C for 48 h. After 48 h, cells were harvested and examined using a differential interference contrast microscopy (BX53, Olympus, Tokyo, Japan) with the UPlanSApo 60×/1.35 NA oil-immersion objective, ORCA-spark camera (Hamamatsu Photonics, Hamamatsu, Japan), and CellSens software. Nine random fields were imaged per plate. Mating rates were calculated as in Seike et al.[11] using the equation: Mating rate(%)=2Z+2A+0.5S×100/V+2Z+2A+0.5S where V, Z, A, and S represent vegetative cells, zygotes, asci, and spores, respectively. Data are reported as the mean ±s.d.
# All statistical analyses treated biological replicates (n = 3) as the unit of replication. Unless stated otherwise, values are reported as mean ± s.d., tests were two-sided, and no data were excluded. For two-group comparisons we used Welch’s t test (unequal variances). Significance in figures is denoted as p < 0.05, p < 0.01, and p < 0.001. […] For microscopy-based mating assays, nine random fields were scored per plate; field values were averaged within each biological replicate to avoid pseudoreplication. […] Analyses were performed in Python (pandas, numpy, math); plots were generated using matplotlib and seaborn.
# M-factor receptor Map3 = target: T1, M-factor receptor Map3 (Schizosaccharomyces pombe, UniProt P31397); assay: In vitro M-factor activity assay using a map4 promoter–lacZ fusion (β-galactosidase); format: cell-based; conditions: synthetic peptide 10 µM, map4-lacZ reporter strain, nitrogen-free SSL medium, pH 5.5 or 7.0
# T1 construct: Tester strain TS472 was inoculated into 5 mL SSL + N medium; endogenous in cells; host or cells: S. pombe tester strain TS472 (map4 promoter-lacZ reporter)
# T1 sequence (P31397 1-365): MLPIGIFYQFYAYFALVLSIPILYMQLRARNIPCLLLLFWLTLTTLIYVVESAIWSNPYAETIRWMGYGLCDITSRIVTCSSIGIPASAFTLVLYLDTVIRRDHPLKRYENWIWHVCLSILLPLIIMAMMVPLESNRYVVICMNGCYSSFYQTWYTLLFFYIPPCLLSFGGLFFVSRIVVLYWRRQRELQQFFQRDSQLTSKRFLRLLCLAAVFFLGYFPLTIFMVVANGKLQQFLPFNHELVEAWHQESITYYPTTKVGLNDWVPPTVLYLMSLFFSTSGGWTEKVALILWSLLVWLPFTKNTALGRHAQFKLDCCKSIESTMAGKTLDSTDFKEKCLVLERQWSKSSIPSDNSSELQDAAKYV
# Protocol: β-galactosidase activity was measured to evaluate activation of the M-factor receptor Map3 using synthetic M-factor peptides, following a previously described method[22]. Tester strain TS472 was inoculated into 5 mL SSL + N medium (SSA without agar) at an initial OD600 of 0.1 and cultured at 30 °C for 20 h. Cells were washed three times with SSL–N medium (lacking 0.5 g/L aspartic acid) and resuspended in SSL–N at varying pH values (adjusted with HCl or NaOH) to OD600 = 2.0.
# Thereafter, cells were washed and resuspended in Z-buffer (60 mM Na2HPO4, 40 mM NaH2PO4, 10 mM KCl, 1 mM MgSO4·7H2O, and 50 mM β-mercaptoethanol; pH 7.0) to OD600 = 5.0. For each replicate (n = 3), 200 µL of cell suspension was mixed with 600 µL Z-buffer, 15 µL chloroform, and 12 µL 0.1% SDS, vortexed, and incubated at 30 °C for 5 min. Reactions were initiated with 160 µL o-nitrophenyl-β-D-galactopyranoside (ONPG; 4 mg/mL in Z-buffer), and both start and end times were recorded. After incubation at 30 °C, reactions were terminated with 400 µL 1 M Na2CO3, centrifuged (13,000 rpm, 3 min, 4 °C), and 200 µL supernatant was diluted into 1 mL 0.33 M Na2CO3. Absorbance at 420 nm (OD420) was measured to calculate Miller units. Miller units=(OD420×1000)/(V×t×OD600) where V is reaction volume (mL) and t is reaction time (minute). Data are reported as the mean ± s.d. […]
Substance,"Mating competence at pH 5.5 ([1]; SSA pH 5.5, 48 h)","Cells forming mature asci ([1]; SSA pH 7.5–8.5, 48 h)","Effect on mating in background with intact mfm2+ and mfm3+ genes ([1]; mfm1-P36H in h90 mfm2+ mfm3+ background, SSA pH 5.5 and pH 7.0)",pH dependence of β-galactosidase activity (Map3 activation) (M-factor receptor Map3)
"P6H: M-factor single-amino acid variant; also tested as synthetic peptide (Eurofins) (YTPKVHYMC(Far)-OMe; ends and bridges not checked; UniProt P34068 31-39, looked up, variant P36H)",virtually sterile,approximately 50%,does not exert a dominant-negative effect on mating,
"T2Q: M-factor single-amino acid variant; also tested as synthetic peptide (Eurofins) (YQPKVPYMC(Far)-OMe; ends and bridges not checked; UniProt P34068 31-39, looked up, variant T32Q)",,,,higher activity at acidic pH
